Key:
[1] = system: rat constriction injury model; assay: rat chronic constriction injury model of neuropathic pain (cold allodynia); assay type: in vivo; settings: read-out: ED50 for reversal of cold allodynia
Experimental: The anti-pain effects of Compounds 1 and 2 are evaluated in a model for traumatic nerve injury. The specific model is the rat constriction injury model, a commonly accepted model for the evaluation of the potential of a compound to treat chronic neuropathic pain. The end point is whether a compound can reverse cold allodynia in rats following a neuropathic injury. MC may be used as the control.

Chung model = Chung model of neuropathic pain (L5/L6 spinal nerve ligation, tactile allodynia, von Frey filaments); assay type: in vivo, rat; settings: 300 mg/kg per os, male Sabra rats
Text: The potential of Compound 1 to serve as an anti-pain agent was studied in the Chung model (Kim, S. H. and Chung, J. M.). This model is known as a reliable model, predictive for human pain. (Kim, S. H. and Chung, J. M.). In this model, spinal nerves L5 and L6 of the rat are tightly ligated and cut in order to induce neuropathic pain. Male Sabra rats weighing 250-275 g were used throughout the study. Under xylazine-ketamine anesthesia, both the L5 and L6 spinal nerves of one side of the rat were tightly ligated and cut. Pain behavior was measured following operation in all groups using withdrawal latencies of the hind paw to mechanical stimulation with von Frey filaments (tactile allodynia). The mechanical sensitivity of the foot was quantified by the occurrence of foot withdrawal in response to normally innocuous mechanical stimuli. Eight different von Frey filaments ranging from 0.6 to 26 g were used.
The efficacy (antiallodynic effect) of the compound was evaluated (300 mg/kg, per os (oral)) in eight rats at days 7 and 14 postoperation in a double-blind randomized crossover manner. The testing included estimation of time of peak effect following drug administration and measurement of the ability of the compound to decrease tactile allodynia.

[2] = system: plasma protein extravasation; assay: migraine model of Moskowitz (plasma protein extravasation into the dura mater); assay type: in vivo; settings: control = 100
Text: Evaluation of the anti-headache effects of Compounds 1 and 2 are followed in the migraine model of Moskowitz (Suzzi, M. C. and Moskowitz, M. A.). In this model, neurogenic inflammation results in the leakage of plasma proteins into the dura matter (plasma protein extravasation), which can be quantified by measuring the leakage of radioactive albumin (Suzzi, M. C. and Moskowitz, M. A.).

Structure (SMILES)	ED50 [1] [mg/kg]	Time of peak effect (Chung model; antiallodynic effect) [min]	Effect on tactile allodynia in comparison to vehicle (Chung model; days 7 and 14 postoperation, significant at 60 min (p=0.0207) and 120 min (p=0.0102))	Percent Extravasation Compared to Control [2]
CCCC(CCC)C(=O)NCC(N)=O [Compound 1, N-(2-n-propylpentanoyl)glycinamide]	< 500	60	reversed tactile allodynia	<100
CC/C=C(\CCC)C(=O)NCC(N)=O [Compound 2, N-(2-n-propylpent-2-enoyl)glycinamide]	< 500	–	–	<100

From patent publication US8288442B2, “Use of derivatives of valproic acid amides and 2-valproenic acid amides for the treatment or prevention of pain and/or headache disorders” (Yissum Research Development Company of The Hebrew …, priority 2000, dated 2012)
